From patent US9028845B2, “Chimeric immunomodulatory compounds and methods of using the same-IV” (Dynavax Technologies Corporation, priority 2001, dated 2015)

Legend:
PBMCs = assay: Human PBMC proliferation assay (3H-thymidine incorporation); type: cell-based; details: Experiment A; for mean cpm: 2 μg/ml
CD19+ B cells = assay: Human B cell proliferation assay (3H-thymidine incorporation); details: 2 μg/ml; for cpm1 / cpm2 / cpm3 / mean cpm / mean of both: B cells
human PBMCs = assay: Human PBMC cytokine response assay (IFN-γ and IFN-α in cell-free medium by ELISA), with or without cPLGA; type: cell-based;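 on IFN-α (pg/ml) mean: 20 µg/mL compound for 24 hours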;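 on IFN-γ (pg/ml) mean: 20 µg/mL compound for 24 hours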
[1] = Table 24, mean of donors 28234-28237
[2] = donor 28066, 20 ug/ml, 24 h, + PLGA = premixed with 100 μg/ml cPLGA
[3] = donor 28067, 20 ug/ml, 24 h, + PLGA = premixed with 100 μg/ml cPLGA
[4] = donor 28068, 20 ug/ml, 24 h, + PLGA = premixed with 100 μg/ml cPLGA
[5] = mean of donors 110, 112, 119, 120, Table 14
[6] = mean of donors 28065-28068, 20 ug/ml, 24 h, + PLGA = premixed with 100 μg/ml cPLGA
[7] = mean of donors 28185-28188, Table 15

Substance “(5′-TCGTCGA-3′)2-glycerol-5′-TCGTCGA-3′ [Compound C-28]” has a cpm1 (PBMCs; Donor 146, 2 μg/ml) of 94977 cpm, a cpm2 (PBMCs; Donor 146, 2 μg/ml) of 121595 cpm and a cpm3 (PBMCs; Donor 146, 2 μg/ml) of 84977 cpm. For the same substance, the mean cpm (PBMCs; Donor 146 mean) was 100516 cpm, the cpm1 (PBMCs; Donor 147, 2 μg/ml) was 103916 cpm and the cpm2 (PBMCs; Donor 147, 2 μg/ml) was 91439 cpm. It also gave a cpm3 (PBMCs; Donor 147, 2 μg/ml) of 100905 cpm, a mean cpm (PBMCs; Donor 147 mean) of 98753 cpm and a mean of both (PBMCs; mean of Donors 146 and 147, 2 μg/ml) of 99635 cpm. The “B cell proliferation, in words” value (CD19+ B cells; 48 h plus 8 h 3H-thymidine pulse) was “cause B cells to proliferate”, the cpm1 (CD19+ B cells; Donor 146, Experiment A) was 50999 cpm and the cpm2 (CD19+ B cells; Donor 146, Experiment A) was 54630 cpm. For the same substance, the cpm3 (CD19+ B cells; Donor 146, Experiment A) was 46418 cpm, the mean cpm (CD19+ B cells; Donor 146 mean, Experiment A) was 50682 cpm and the cpm1 (CD19+ B cells; Donor 147, Experiment A) was 65593 cpm. For the same substance, the cpm2 (CD19+ B cells; Donor 147, Experiment A) was 51040 cpm, the cpm3 (CD19+ B cells; Donor 147, Experiment A) was 50357 cpm and the mean cpm (CD19+ B cells; Donor 147 mean, Experiment A) was 55663 cpm. The cpm1 (CD19+ B cells; donor 121, Experiment B) was 35393 cpm, the cpm2 (CD19+ B cells; donor 121, Experiment B) was 26954 cpm and the cpm3 (CD19+ B cells; donor 121, Experiment B) was 26780 cpm. For the same substance, the mean cpm (CD19+ B cells; donor 121 mean, Experiment B) was 29709 cpm, the cpm1 (CD19+ B cells; donor 194, Experiment B) was 21588 cpm and the cpm2 (CD19+ B cells; donor 194, Experiment B) was 13691 cpm. It also gave a cpm3 (CD19+ B cells; donor 194, Experiment B) of 15691 cpm, a mean cpm (CD19+ B cells; donor 194 mean, Experiment B) of 16990 cpm and a mean of both (CD19+ B cells; mean of Donors 146 and 147, Experiment A) of 53173 cpm. For the same substance, the mean of both (CD19+ B cells; mean of donors 121 and 194, Experiment B) was 23350 cpm, the IFN-α (human PBMCs; Table 9, donor 28089) was 0 pg/mL and the IFN-γ (human PBMCs; Table 9, donor 28089) was 14 pg/mL. For the same substance, the IFN-α (human PBMCs; Table 9, donor 28090) was 64 pg/mL, the IFN-γ (human PBMCs; Table 9, donor 28090) was 15 pg/mL and the IFN-α (human PBMCs; Table 9, donor 28098) was 42 pg/mL. The IFN-γ (human PBMCs; Table 9, donor 28098) was 183 pg/mL, the IFN-α (human PBMCs; Table 9, donor 28099) was 67 pg/mL and the IFN-γ (human PBMCs; Table 9, donor 28099) was 45 pg/mL. It also gave an IFN-α mean (human PBMCs; Table 9, mean of donors) of 43 pg/mL, an IFN-γ mean (human PBMCs; Table 9, mean of donors) of 64 pg/mL and an IFN-α (human PBMCs; Table 24, donor 28234) of 16 pg/mL. The IFN-γ (human PBMCs; Table 24, donor 28234) was 10 pg/mL, the IFN-α (human PBMCs; Table 24, donor 28235) was 16 pg/mL and the IFN-γ (human PBMCs; Table 24, donor 28235) was 14 pg/mL. It also gave an IFN-α (human PBMCs; Table 24, donor 28236) of 16 pg/mL, an IFN-γ (human PBMCs; Table 24, donor 28236) of 88 pg/mL and an IFN-α (human PBMCs; Table 24, donor 28237) of 16 pg/mL. For the same substance, the IFN-γ (human PBMCs; Table 24, donor 28237) was 1229 pg/mL, the IFN-α mean (human PBMCs; [1]) was 16 pg/mL and the IFN-γ mean (human PBMCs; [1]) was 335 pg/mL. The “IFN-α” value (human PBMCs; donor 110, Table 14) was 38 pg/mL, the “IFN-γ” value (human PBMCs; donor 110, Table 14) was 5564 pg/mL and the “IFN-α” value (human PBMCs; donor 112, Table 14) was 4 pg/mL. For the same substance, the “IFN-γ” value (human PBMCs; donor 112, Table 14) was 52 pg/mL, the “IFN-α” value (human PBMCs; donor 119, Table 14) was 56 pg/mL and the “IFN-γ” value (human PBMCs; donor 119, Table 14) was 44 pg/mL. For the same substance, the “IFN-α” value (human PBMCs; donor 120, Table 14) was 26 pg/mL, the “IFN-γ” value (human PBMCs; donor 120, Table 14) was 60 pg/mL and the “IFN-γ (pg/ml) 28065” value (human PBMCs; donor 28065 (high background), 20 ug/ml, 24 h, + PLGA = premixed with 100 μg/ml cPLGA, 1000 = outside assay limits) was 1082 pg/mL. For the same substance, the “IFN-α (pg/ml) 28065” value (human PBMCs; donor 28065, 20 ug/ml, 24 h, + PLGA = premixed with 100 μg/ml cPLGA) was 3 pg/mL, the “IFN-α (pg/ml) 28066” value (human PBMCs; [2]) was 0 pg/mL and the “IFN-γ (pg/ml) 28066” value (human PBMCs; [2]) was 5 pg/mL. For the same substance, the “IFN-α (pg/ml) 28067” value (human PBMCs; [3]) was 29 pg/mL, the “IFN-γ (pg/ml) 28067” value (human PBMCs; [3]) was 42 pg/mL and the “IFN-α (pg/ml) 28068” value (human PBMCs; [4]) was 52 pg/mL. The “IFN-γ (pg/ml) 28068” value (human PBMCs; [4]) was 410 pg/mL, the “IFN-a” value (human PBMCs; donor 28185, Table 15) was 14 pg/mL and the “IFN-g” value (human PBMCs; donor 28185, Table 15) was 162 pg/mL. The “IFN-a” value (human PBMCs; donor 28186, Table 15) was 4 pg/mL, the “IFN-g” value (human PBMCs; donor 28186, Table 15) was 24 pg/mL and the “IFN-a” value (human PBMCs; donor 28187, Table 15) was 0 pg/mL. The “IFN-g” value (human PBMCs; donor 28187, Table 15) was 75 pg/mL, the “IFN-a” value (human PBMCs; donor 28188, Table 15) was 4 pg/mL and the “IFN-g” value (human PBMCs; donor 28188, Table 15) was 5 pg/mL. For the same substance, the “IFN-α (pg/ml) mean” value (human PBMCs; [5]) was 31 pg/mL, the “IFN-γ (pg/ml) mean” value (human PBMCs; [5]) was 1430 pg/mL and the “IFN-α (pg/ml) mean” value (human PBMCs; [6]) was 21 pg/mL. For the same substance, the “IFN-γ (pg/ml) mean” value (human PBMCs; [6]) was 385 pg/mL, the “IFN-a (pg/ml) mean” value (human PBMCs; [7]) was 6 pg/mL and the “IFN-g (pg/ml) mean” value (human PBMCs; [7]) was 66 pg/mL. The “IFN-a (pg/ml) ×2” value (human PBMCs; mean ×2, Table 15) was 11 pg/mL, the “IFN-g (pg/ml) ×4” value (human PBMCs; mean ×4, Table 15) was 266 pg/mL and the “IFN-α induction, in words” value (human PBMCs; used alone) was “HEG (C-94)>TEG (C-103)>C3 (C-104)=no linker (C-28)”.
